Patent US20110257144A1 (APEX LABORATORIES PRIVATE LIMITED, priority 2008, published 2011)

Assays:
Staphylococcus aureus = experiment: In vitro antimicrobial zone of inhibition study; assay type: cell-based
Method: API-stability experiments were carried out (see tables 4-14) using the product of the present invention and products currently commercially available. Tests were carried out to observe (or measure as appropriate) the physical appearance of the product, the pH value and assay of the API over a period of time. Tests were also carried out to assess the stability by subjecting the product to stress studies such as autoclave test and oxydative degradation test. Further, in vitro antimicrobial zone of inhibition studies were also carried out over a period of time. […] The antimicrobial/antibacterial activity of the product is confirmed by the in vitro Antimicrobial Zone of Inhibition studies for the product against Staphylococcus aureus. The details of the studies are detailed below in Table 15.

[1] = Stability of raw API after 3 months in open and closed Petri dish, stability-indicating HPLC method and titration method; assay type: physicochemical; settings: for Percentage Drop (%) HPLC: after 3 months; for *Initial (%): assay at the time of receipt of the API from the supplier
Method: Degradation due to oxidation is a major cause of instability of currently available Fusidic acid creams. […] It can be observed from Tables 1 and 2 that: • In the case of Fusidic Acid, there is about 7.7% loss in 3 Months at room temperature (open condition) and about 11% loss in 3 Months at 45° C. […] (open condition).

Row | Percentage Drop (%) HPLC ([1]; 45° C. (Open) Petri dish) | Percentage Drop (%) HPLC ([1]; RT (Open) Petri dish) | *Initial (%) ([1]; listed as FUSIDIC ACID BP) | stability as an API (comparison) ([1]; Sodium Fusidate versus Fusidic acid, Tables 1 and 2) | *Initial (%) ([1]; listed as Sodium Fusidate BP) | SMILES | Inference (Staphylococcus aureus; dose 10 mcg) | Zone Diameter Range (mm) (Staphylococcus aureus; dose 10 mcg) | Inference (Staphylococcus aureus; dose 20 mcg) | Zone Diameter Range (mm) (Staphylococcus aureus; dose 20 mcg) | Inference (Staphylococcus aureus; dose 50 mcg) | Zone Diameter Range (mm) (Staphylococcus aureus; dose 50 mcg) | Inference (Staphylococcus aureus; dose 10 Units) | Zone Diameter Range (mm) (Staphylococcus aureus; dose 10 Units)
1 | about 11% | about 7.7% | 100.6 | – | – | CC(=O)O[C@H]1C[C@@]2(C)[C@@H](C[C@@H](O)[C@H]3[C@@]4(C)CC[C@@H](O)[C@@H](C)[C@@H]4CC[C@@]32C)/C1=C(\CCC=C(C)C)C(=O)O [Fusidic acid] | Sensitive | 21-33 mm | Sensitive | 20-30 mm | Sensitive | 25-32 mm | – | –
2 | – | – | – | – | – | CC1(C)S[C@@H]2[C@H](NC(=O)Cc3ccccc3)C(=O)N2[C@H]1C(=O)O [Penicillin G] | – | – | – | – | – | – | Resistant | 21-27 mm
3 | about 6% | about 2.5% | – | more stable than Fusidic acid | 98.7 | CC(=O)O[C@H]1C[C@@]2(C)[C@@H](C[C@@H](O)[C@H]3[C@@]4(C)CC[C@@H](O)[C@@H](C)[C@@H]4CC[C@@]32C)/C1=C(\CCC=C(C)C)C(=O)O [Sodium Fusidate] | – | – | – | – | – | – | – | –
